Assay results as given in patent US10478464B2, “Compositions and methods of use” (priority 2009, dated 2019).

How the values were obtained:
[1] = Maximal tolerated dose (MTD), single IV bolus; type: in vivo
Method: The purpose of this study was to determine the maximum tolerated dose of 8-HHA following intravenous (IV) administration in ICR mice. A racemic mixture of 8-HHA, placebo, and vehicle were administered to 20 ICR female mice with weight of 25-30 grams, respectively. The 8-HHA was formulated in nanolipid at concentration of 0, 10, 20 and 40 mg/ml. There were 4 animals per group and they were injected with 0, 10, 20 and 40 mg/kg dose of 8-HHA Mice were given a single bolus dose via the tail vein according to group assignment. One week after dosing mice were sacrificed. Daily clinical observations were performed 15 minutes and 1 hour post dose. The mice were observed daily for any adverse effects until necropsy on study day 8. Body weights were recorded for all the mice prior to test substance administration, and every other day throughout the test period. This entire study was performed at Toxikon Corporation, Bedford, Mass.

[2] = tested on: HOP92 cells; assay: Lung cancer xenograft mouse model (HOP92); type: in vivo, BALB/c nu/nu mice; conditions: for Mean ± SEM Tumor Volume (HOP-92): 10 mg/kg IP
Excerpt: The purpose of this study was to determine anti tumor efficacy of 8-HHA in lung cancer using HOP92 cells.
Animals and care: Thirty BABL/c nude, non-pregnant and nulliparous female mice that are 5-6 weeks old and weighing 16-20 gms were used in this study. BALB/c nu/nu mice were used because they have been historically used in xenograft studies to test anti-tumor efficacy of drug candidates. Mice were acclimatized for minimum 5 days, under same conditions as for the actual test. Mice were housed at room temperature 68±5° F. with room Relative Humidity of 30-70%, air Exchanges per Hour of a minimum of 10 changes per hour, lights exposure of 12-hour light/dark cycle, full spectrum fluorescent lights. The mice were housed in groups in ventilated micro-isolator cages made up of polycarbonate. The mice were using autoclaved laboratory grade bedding and were provided ad libitum with irradiated pellets and autoclaved water. There were no known contaminants present in the feed, water, or bedding expected to interfere with the test data. The laboratory and animal rooms were maintained as limited-access facilities.
Route of injection and dose: 8-HHA was administered through intraperitoneal (IP) injection.
Tumor Induction: The cell line HOP92 were cultured according to recommended specifications at Vanas Oncology as above discussed in Example 20. Cells were trypizinized and counted using the Trypan-blue viability test using a hemocytometer. Cell counts in quadrants of the hemocytometer were converted to a cells/mL value, which will enable isolation of the appropriate number of cells per mouse. Each mouse was inoculated subcutaneously in the right flank region with 0.2 mL of a 50% RPMI/50% Matrigel™ mixture containing a suspension of tumor cells (5×10^6 cells/mouse). Tumors were observed twice weekly until well established. Tumor volume was calculated using the formula: Tumor weight (mg)=(a×b^2/2) where ‘b’ is the smallest diameter and ‘a’ is the largest diameter in millimeters.
Allocation of Animals: Once the established tumors reach a mean calculated volume of approximately 50-100 mg, the mice were randomized, using appropriate software, into treatment groups in order to reduce the variability of tumor sizes per group.
Pre Dose Procedure: Acclimated animals were weighed and observed for clinical signs of toxicity prior to dosing on Day 1.
The first day of dosing is Day 1. On Day 1,8-HHA, and vehicle injections are administered according to the study design in Table 9 below.
Post Dose Procedure: Following treatment, tumor and mouse body weight measurements were recorded twice weekly and gross observation was made at least once daily. Mice with tumors that were not palpable was considered complete regressions. Percentage of mice mortality and time of death were recorded for every group in the study. Animals may be defined as moribund and sacrificed if one or more of the following criteria are met: • Loss of body weight of 20% or greater in a 1 week period. • Mice that inhibit normal physiological function such as eating, drinking, mobility, and ability to urinate and/or defecate. • Tumors that exceed a maximum size of 2000 mg as measured by calipers. • Ulcerated tumors, or tumors that bleed or produce exudates. • Prolonged, excessive diarrhea leading to excessive weight loss (>20%). • Persistent wheezing and respiratory distress. • Prolonged or excessive pain or distress as defined by clinical observations such as: prostration, hunched posture, paralysis/paresis, distended abdomen, ulcerations, abscesses, seizures, and/or hemorrhages.

CCCCCCCCC(O)CCCCCCC(=O)O (racemic) [Sample 8-HHA, 8-hydroxy-palmitic acid]
tolerability / clinical abnormalities ([1]; 10 mg/kg and 20 mg/kg IV): did not demonstrate any clinical abnormalities | mice that died shortly after being dosed ([1]; high dose 40 mg/kg IV, 4 animals per group): Two | MTD at 8 days ([1]; mouse, in vivo, ICR female mice, single IV bolus, nanolipid formulation, read-out: maximum tolerated dose): 20 mg/kg | body weight at day 6 and 8 ([1]; single IV bolus): did not vary from pre dose weight | Mean ± SEM Tumor Volume (HOP-92) ([2]; Day 16): 88.78±28.61 mm^3 | Mean ± SEM Tumor Volume (HOP-92) ([2]; Day 18): 82.02±25.93 mm^3 | decrease in tumor volume vs control group ([2]; T1 10 mg/Kg, day 16): 58.6% | decrease in tumor volume vs control group ([2]; T1 10 mg/Kg, day 18): 68.2% | decrease in tumor volume vs control group ([2]; T2 100 mg/Kg, day 16): 56.5% | decrease in tumor volume vs control group ([2]; T2 100 mg/Kg, day 18): 73.1% | tumor growth inhibition, in words ([2]; both T1 (10 mg/Kg) and T2 (100 mg/Kg)): significantly inhibited tumor growth in mice from day 16
